# From patent US9839668B2, “Compositions and methods for the treatment of diseases related to the renin-angiotensin-system” (ATTOQUANT DIAGNOSTICS GMBH, priority 2013, dated 2017)
# Tests used:
# [1] = tested on: Ang 1-8 and Ang 1-7 levels in human whole blood; assay: Ang 1-8 and Ang 1-7 levels in human heparinized whole blood plus recombinant human renin, ex vivo, LC-MS/MS; format: biochemical; conditions: human whole blood + 100 pg/ml renin, 60 min 37° C., ACE inhibitors 10 μM; for Ang 1-7 level: vehicle control 27 pg/ml; for Ang 1-8 level: vehicle control 686 pg/ml
# Experimental: Blood was collected from a human healthy volunteer using a standard heparin blood collection tube. Recombinant human renin was added to whole blood at a concentration of 100 pg/ml in order to simulate RAS hyper-activation. Drugs and combinations were added to different plasma samples at indicated final concentrations and combinations (FIG. 2) using appropriate solvent controls for each compound or combination tested. Following an incubation period of 60 min at 37° C., samples were stabilized by addition of protease inhibitors and Ang 1-8 and Ang 1-7 levels were measured by mass spectrometry.
# Ang 1-8 and Ang 1-7 levels were measured following 1 h of incubating the compounds with human heparinized whole blood (plus recombinant human renin) at 37° C.
# [2] = target: APN (EC 3.4.11.2) (Homo sapiens, UniProt P15144); conditions: APN vs APA; cited from earlier work
# APN (EC 3.4.11.2), sequence (P15144 whole entry, species assumed): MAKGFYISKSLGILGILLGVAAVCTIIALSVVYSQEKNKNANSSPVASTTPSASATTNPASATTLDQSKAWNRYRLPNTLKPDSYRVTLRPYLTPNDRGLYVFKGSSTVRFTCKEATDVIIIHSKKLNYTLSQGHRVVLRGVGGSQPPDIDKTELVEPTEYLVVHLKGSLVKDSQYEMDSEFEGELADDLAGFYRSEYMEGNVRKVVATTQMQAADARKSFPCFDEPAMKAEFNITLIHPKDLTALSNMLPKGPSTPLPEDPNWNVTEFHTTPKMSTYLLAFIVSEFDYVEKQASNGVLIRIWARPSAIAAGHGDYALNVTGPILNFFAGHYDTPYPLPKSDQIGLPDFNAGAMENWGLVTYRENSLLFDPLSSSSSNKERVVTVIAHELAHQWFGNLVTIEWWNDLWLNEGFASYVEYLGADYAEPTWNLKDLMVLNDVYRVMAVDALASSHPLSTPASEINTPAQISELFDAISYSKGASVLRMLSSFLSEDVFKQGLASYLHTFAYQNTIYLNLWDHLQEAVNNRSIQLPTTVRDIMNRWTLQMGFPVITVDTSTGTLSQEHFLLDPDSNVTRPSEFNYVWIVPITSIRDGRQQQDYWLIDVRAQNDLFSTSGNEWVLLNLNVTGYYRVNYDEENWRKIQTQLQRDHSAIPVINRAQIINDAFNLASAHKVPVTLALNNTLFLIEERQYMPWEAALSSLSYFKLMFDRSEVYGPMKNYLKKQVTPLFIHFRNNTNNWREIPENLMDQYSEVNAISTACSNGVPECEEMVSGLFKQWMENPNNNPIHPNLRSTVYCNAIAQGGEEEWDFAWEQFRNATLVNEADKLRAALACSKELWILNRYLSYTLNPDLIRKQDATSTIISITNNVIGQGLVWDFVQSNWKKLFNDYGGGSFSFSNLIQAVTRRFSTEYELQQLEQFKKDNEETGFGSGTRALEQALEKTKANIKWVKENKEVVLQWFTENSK
# [3] = tested on: SHR rats; assay: Systolic blood pressure in male SHR rats, tail-cuff method; format: in vivo, rat; conditions: day 7, mean +/-SEM
# Experimental: Twenty male 16-week-old SHR rats were used for investigation of short-term effects of the new drug combination on systolic blood pressure. Prior to starting the treatment procedure, rats were conditioned to the experimental procedure by daily blood pressure measurements using the tail-cuff method for 1 week. […] Daily blood pressure measurements were performed 4 h following drug administration and continued throughout the whole treatment period. Blood-pressure data were evaluated by calculating the relative change in systolic blood pressure compared to the vehicle group at day 7 of drug administration. Statistical comparison between the groups was conducted by using Student's T-test.
# Mean body weight and baseline systolic blood pressure of SHR rats were determined at the beginning of the treatment period resulting in a mean body weight of 283 g and mean systolic blood pressure of 196 mmHg. Following 7 days of daily oral administration of different compounds and compound combinations, systolic blood pressure was monitored by tail-cuff method and the relative changes compared to vehicle treated control rats (V) mean values are shown with corresponding standard errors of the mean (+/−SEM) (FIG. 1).
# [4] = tested on: human APA in plasma; assay: Ex vivo APA activity and Ang 1-8 levels in human heparin plasma plus recombinant human renin; format: biochemical
# Experimental: (§1) APA activity was determined by measuring Ang 2-8 formation using LC-MS/MS. The Ang 2-8 formation rate is given in pg Ang 2-8/ml per minute. […] Following the incubation period, samples were cooled on ice, stabilized by the addition of protease inhibitors and analyzed for Ang 1-8 levels by LC-MS/MS.
# [5] = tested on: Balb/c mice; assay: Plasma Ang 1-8 and Ang 1-7 levels in Balb/c mice after intra-peritoneal injection, LC-MS/MS; format: in vivo, mouse
# Experimental: Mice were sacrificed 4 h following drug administration and blood was collected in the presence of protease inhibitors suitable for stabilization of angiotensin peptides in the collected sample. Following centrifugation of blood at 2500 g for 5 min at 4° C., Ang 1-8 and Ang 1-7 was quantified in the plasma samples by LC-MS/MS analysis.
# [6] = target: T1, APA (recombinant human ENPEP) (Homo sapiens, UniProt Q07075); assay: In vitro APA activity assay: conversion of Ang 1-8 to Ang 2-8, LC-MS/MS; format: biochemical; conditions: 0.1 μM Amastatin, 1 μg/ml APA
# T1 construct: purchased R&D 2499-ZN
# T1 sequence (Q07075 whole entry): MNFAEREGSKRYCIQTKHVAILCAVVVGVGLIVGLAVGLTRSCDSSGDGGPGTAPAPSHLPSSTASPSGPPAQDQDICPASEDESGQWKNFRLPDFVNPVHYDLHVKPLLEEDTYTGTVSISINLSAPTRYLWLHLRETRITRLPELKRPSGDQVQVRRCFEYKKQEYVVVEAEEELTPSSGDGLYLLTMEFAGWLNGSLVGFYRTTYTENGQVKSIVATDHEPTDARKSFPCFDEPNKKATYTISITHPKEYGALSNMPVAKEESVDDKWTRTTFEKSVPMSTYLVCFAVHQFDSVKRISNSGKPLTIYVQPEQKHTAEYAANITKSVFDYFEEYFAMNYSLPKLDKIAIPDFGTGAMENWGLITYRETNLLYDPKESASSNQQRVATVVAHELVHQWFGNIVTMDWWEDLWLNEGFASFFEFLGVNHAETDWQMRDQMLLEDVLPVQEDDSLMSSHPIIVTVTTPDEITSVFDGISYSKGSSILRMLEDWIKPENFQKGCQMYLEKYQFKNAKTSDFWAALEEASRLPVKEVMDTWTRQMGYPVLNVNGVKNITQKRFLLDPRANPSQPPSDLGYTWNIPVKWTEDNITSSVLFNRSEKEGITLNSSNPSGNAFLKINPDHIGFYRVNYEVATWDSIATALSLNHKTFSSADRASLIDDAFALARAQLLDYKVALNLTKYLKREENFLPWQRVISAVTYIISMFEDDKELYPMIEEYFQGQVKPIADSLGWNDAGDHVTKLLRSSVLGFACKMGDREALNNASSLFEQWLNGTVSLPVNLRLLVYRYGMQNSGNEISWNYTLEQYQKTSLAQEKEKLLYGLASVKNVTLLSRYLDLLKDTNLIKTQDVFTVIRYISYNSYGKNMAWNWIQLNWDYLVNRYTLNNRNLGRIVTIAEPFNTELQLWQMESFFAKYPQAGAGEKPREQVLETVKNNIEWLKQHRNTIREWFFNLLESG
# Experimental: as §1
# [7] = tested on: rats; conditions: administered to the periphery by intravenous injection in rats; cited from earlier work
# [8] = tested on: APA over APN; conditions: cited from earlier work
# [9] = tested on: SHR rat; conditions: one SHR rat, i.v. 50 μmol/kg Lisinopril then 20 μmol/kg Amastatin, blood 10 min after each infusion
# Experimental: A male SHR rat was anesthetized by isoflurane followed by preparation of the jugular vein and insertion of an infusion catheter. At the beginning of the experiment (t=0 min) 200 μl of phosphate buffered saline was infused into the jugular vein within a period of 15 seconds. 10 min following saline infusion, 500 μl heparin blood was collected from the tail vein and placed on ice. Another 10 min later (t=20 min) a dose of 50 μmol/kg Lisinopril was in fused in a volume of 200 μl phosphate buffered saline, followed by another tail vein heparin blood collection of 500 μl heparin blood 10 min after Lisinopril infusion. […] Following centrifugation of blood at 2500 g for 5 min at 4° C., Ang 1-8 and Ang 1-7 was quantified in the plasma samples by LC-MS/MS analysis.
# [10] = target: T2, APA in the brain (Rattus norvegicus, UniProt P50123); conditions: via inhibition of APA by active metabolite EC-33 in the brain; cited from earlier work
# T2 construct: host or cells: brain, in vivo
# T2 sequence (P50123 whole entry): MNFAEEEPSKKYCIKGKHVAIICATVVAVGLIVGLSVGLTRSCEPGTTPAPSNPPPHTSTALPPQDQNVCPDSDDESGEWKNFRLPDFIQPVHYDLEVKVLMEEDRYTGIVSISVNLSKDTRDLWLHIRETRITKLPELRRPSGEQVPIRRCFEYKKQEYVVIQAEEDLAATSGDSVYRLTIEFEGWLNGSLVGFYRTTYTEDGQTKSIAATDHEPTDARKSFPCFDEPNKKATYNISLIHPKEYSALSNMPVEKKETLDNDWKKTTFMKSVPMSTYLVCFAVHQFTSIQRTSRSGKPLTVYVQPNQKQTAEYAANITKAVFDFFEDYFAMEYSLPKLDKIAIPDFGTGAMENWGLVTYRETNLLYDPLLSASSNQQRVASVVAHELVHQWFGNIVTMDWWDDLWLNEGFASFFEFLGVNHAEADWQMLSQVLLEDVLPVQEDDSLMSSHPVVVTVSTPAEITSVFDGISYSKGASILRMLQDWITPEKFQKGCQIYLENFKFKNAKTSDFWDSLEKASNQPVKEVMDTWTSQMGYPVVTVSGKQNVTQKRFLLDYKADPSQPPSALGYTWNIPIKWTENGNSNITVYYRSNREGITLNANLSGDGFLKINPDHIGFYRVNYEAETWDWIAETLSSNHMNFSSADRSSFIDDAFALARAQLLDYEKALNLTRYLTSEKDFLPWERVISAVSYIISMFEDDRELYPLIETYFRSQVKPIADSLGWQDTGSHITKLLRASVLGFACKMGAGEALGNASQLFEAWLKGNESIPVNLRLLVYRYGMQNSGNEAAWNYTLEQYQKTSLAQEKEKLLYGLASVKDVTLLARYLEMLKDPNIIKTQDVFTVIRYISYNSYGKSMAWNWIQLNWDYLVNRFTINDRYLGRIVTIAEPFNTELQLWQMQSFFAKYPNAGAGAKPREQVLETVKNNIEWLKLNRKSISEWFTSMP
smiles,measurement,setting,value
CC(C)C[C@@H](N)[C@H](O)C(=O)N[C@H](C(=O)N[C@H](C(=O)N[C@@H](CC(=O)O)C(=O)O)C(C)C)C(C)C [Amastatin],Ang 1-7 level,[1],15 pg/mL
same,Ang 1-8 level,[1],1016 pg/mL
same,more potent in inhibiting APN compared to APA,[2],40 fold
same,increase in mean systolic blood pressure compared to vehicle treated animals,"[3]; 40 mg/kg daily for 7 days, not significant (p=0.60)",5.8+/−7.0 mmHg
same,effect on the activity of human APA in plasma,"[4]; 0.1 μM Amastatin, 1 μg/ml APA",did not affect the activity of human APA in plasma
same,Ang 1-8 level in human heparin plasma,"[4]; 0.1 μM Amastatin, no added APA, 100 pg/ml renin, 60 min 37° C., untreated control 412 pg/ml",752 pg/mL
same,reduction of Ang 1-8 levels by 1 μg/ml APA in the presence of 0.1 μM Amastatin,"[4]; human heparin plasma, 266 pg/ml without Amastatin",323 pg/mL
same,change in circulating Ang 1-8,"[5]; 40 mg/kg i.p., 4 h following drug administration",decrease
same,plasma Ang 1-7 level,"[5]; 4 h after i.p. injection, 40 mg/kg each, baseline below LLOQ",< 4 pg/mL
same,effect on APA activity in vitro,[6],did not affect APA activity in vitro
same,Ang 2-8 formation rate,"[6]; 100 ng/ml Ang 1-8, 37° C. 10 min, 971 without Amastatin",1077 pg Ang 2-8/ml per minute
C[C@H](CS)C(=O)N1CCC[C@H]1C(=O)O [Captopril],Ang 1-7 level,[1],100 pg/mL
same,Ang 1-8 level,[1],29 pg/mL
same,increase of Ang 1-7 following ACE inhibitor treatment alone,[5]; 4 h after i.p. injection,not observed
N[C@H](CS)CCS(=O)(=O)O [EC-33],effect on blood pressure,[7],no effect on blood pressure
same,selectivity for APA over APN,[8],at least 100 fold
NCCCC[C@H](N[C@@H](CCc1ccccc1)C(=O)O)C(=O)N1CCC[C@H]1C(=O)O [Lisinopril],Ang 1-7 level,[1],153 pg/mL
same,Ang 1-8 level,[1],33 pg/mL
same,decrease in systolic blood pressure compared to vehicle treated animals,"[3]; 40 mg/kg of each drug daily for 7 days, measured 4 h after dosing, 5 animals per group",18.6+/−3.9 mmHg
same,increase of Ang 1-7 following ACE inhibitor treatment alone,[5]; 4 h after i.p. injection,not observed
same,equilibrium Ang 1-8 level,[9]; after saline 42.7 pg/ml,21.5 pg/mL
same,equilibrium Ang 1-7 level,[9]; after saline below 3.4 pg/ml,12.1 pg/mL
N[C@@H](CCS(=O)(=O)O)CSSC[C@@H](N)CCS(=O)(=O)O [RB150],effect on blood pressure,[10],effective in lowering blood pressure
